Experimental findings from patent US20040137472A1, “Methods and compositions for modification of splicing of pre-mRNA” (priority 2002, published 2004) are described below.

Holding throughout (type): cell-based, human
Test [1] relates to IVS2-705U EGFP cells. Kind of test: EGFP fluorescence screen by fluorescence microscopy, IVS2-705U EGFP HeLa cells. Particulars: 50 μM compound, 24 hours, detected by eye. More on the design: key: Compounds causing moderate to high levels of fluorescence with no autofluorescence of the compound itself are indicated by a (+) sign; A (+/−) indicates compounds causing faint levels of fluorescence or compounds that have some autofluorescence in addition to causing the cells to fluoresce; A (−) sign indicates that the compounds did not cause detectable levels of fluorescence. The method, then: The screen was carried out using HeLa cell lines stably transfected with an EGFP (enhanced green fluorescent protein) construct. This construct contains the EGFP cDNA disrupted by intron 2 of the β-globin gene, containing thalassemic mutations (FIG. 1), and was under the control of the CMV promoter. Two different cell lines were generated with this construct, one with a mutation at position 654 (IVS2-654 EGFP) and another with a mutation at position 705 (IVS2-705U EGFP).
For both constructs, disruption of EGFP with mutated intron 2 results in a lack of production of a functional EGFP protein. When correct splicing is restored to a cell, intron 2 is excised and functional EGFP protein is generated (Sazani (2001) Nucl. Acids Res. 29:3965-3974).
Cells were plated in black well, clear bottom 96-well plates at 13×10^4 cells/ml, 100 μl per well. The rows on the ends of the plate (rows 1 and 12) were control rows and the remaining rows were treated with compounds. In the control rows, positive control EGFP cells were alternated with untreated cells serving as negative controls. […]
Twenty-four hours after treatment, the medium was removed and the cells were washed 2 times in 150 μl 1× PBS. […] Cells were then examined on an Olympus inverted fluorescence microscope at 10× or 20× using a FITC filter. Fluorescence was detected by eye. Attempts to utilize a fluorescence plate reader failed as the plate reader was not sensitive enough to detect the expected low levels of EGFP fluorescence.
The criteria used to designate a compound as a positive were as follows. […] Additionally, the fluorescence had to be mostly uniform throughout all of the cells. This criterion was complicated by the fact that many of the compounds had varying levels of autofluorescence, and therefore were difficult to distinguish from those that caused cellular fluorescence. […]
The IVS2-705U and IVS2-654 EGFP cell lines were treated a second time with the 132 positive compounds and analyzed on a fluorescence microscope. […]

For test [2], the system named is IVS2-705U EGFP cells. Kind of test: RT-PCR analysis of splicing correction, IVS2-705U EGFP cells. More on the design: key: Compounds causing correction by RT-PCR. are indicated by a (+) sign. Conditions: 50 μM compound. The method, then: (§1) A RT-PCR-based assay was performed to determine if the fluorescence observed on the EGFP cells was a result of the compounds shifting splicing. […] Therefore, primers located in exons 2 and 3 are used to PCR amplify the products, and the size difference is detected by running the products on an acrylamide gel.
After the IVS2-705U and IVS2-654 EGFP cells were re-treated with positive compounds and examined on the microscope, total RNA was isolated using TRI-REAGENT® (Molecular Research Center, Inc., Cincinnati, Ohio). A total of 200 ng of RNA was analyzed by reverse transcription polymerase chain reaction (RT-PCR) using rTth DNA polymerase (Perkin-Elmer, Boston, Mass.) according to manufacturer's instructions. The reverse transcription step was carried out at 70° C. for 15 minutes. The PCR step included 1 cycle, 95° C., 3 minutes: 18 cycles. 95° C., 1 minute, 65° C., 1 minute. For β-globin mRNA amplification, the reverse primer spanned positions 6-28 of exon 3 and the forward primer spanned positions 21-43 of exon 2 of the human β-globin gene. […]
FIG. 3 provides an example of a polyacrylamide gel with RT-PCR products from EGFP cells treated with several positive compounds. The amount of correction was determined by comparing the ratio of the aberrant band and the correct band.

The test system of another test is IVS2-705 β-globin cells. Kind of test: RT-PCR analysis of splicing correction, IVS2-705 β-globin cells. More on the design: key: Compounds causing correction by RT-PCR. are indicated by a (+) sign. Particulars: 50 μM compound.
Text: β-globin cell lines were obtained by stable transfection of HeLa cells with the human β-globin gene carrying thalassemic mutations at either IVS2-654 or IVS2-705. The cloned genes were under the control of the immediate early cytomegalovirus promoter (Sierakowska, et al., (1996) Proc. Natl. Acad. Sci. USA 93:12840-12844). The IVS2-654 EGFP cell line is well known in the art (Sazani (2001) Nucl. Acids Res. 29:3965-3974). The IVS2-705U EGFP cell line was made in the same manner using a different plasmid. HeLa cells were grown in SMEM with 5% horse serum, 5% fetal calf serum, 1% L-glutamine and 1% gentamicin/kanamycin.
as §1
After the IVS2-705U and IVS2-654 EGFP cells were re-treated with positive compounds and examined on the microscope, total RNA was isolated using TRI-REAGENT® (Molecular Research Center, Inc., Cincinnati, Ohio). A total of 200 ng of RNA was analyzed by reverse transcription polymerase chain reaction (RT-PCR) using rTth DNA polymerase (Perkin-Elmer, Boston, Mass.) according to manufacturer's instructions. […]

Consider `COc1ccc(CCN(C)Cc2cc(OC)c(OC)cc2Br)cc1OC` [Compound A5], for which the “705U EGFP Fluorescence” value in the test with IVS2-705U EGFP cells [1] was “+/−”.
On to `CC(C)(C)c1ccc(C(=O)NNC(=O)Cc2ccc(-c3ccccc3)cc2)cc1` [Compound E11], for which the “705U EGFP Fluorescence” value in the test on IVS2-705U EGFP cells [1] is given as “−”. The “705U EGFP RT-PCR” value with IVS2-705U EGFP cells [2] was “+”. In addition, the “705 β-globin RT-PCR” value in the test with IVS2-705 β-globin cells is on record as “+”.
For `CCOc1cccc(CN2CCN(c3ccc(F)cc3)CC2)c1O` [AA11], the “705U EGFP Fluorescence” value in the test on IVS2-705U EGFP cells [1] is reported as “−”. For the same compound, the “705 β-globin RT-PCR” value in the test with IVS2-705 β-globin cells is reported as “+”.
